Measured values reported in patent US6818228B1 (priority 1996, dated 2004).

Key:
[1] = helium displacement
[2] = B.E.T.
[3] = Bulk density (tapped cylinder); conditions: nearly dry material before granulation

Compound	true density [1]	surface area [2]	density (bulk) [3]	surface area as fraction of that of commercial calcium citrate tetrahydrate [2]
O.O.O.O.O=C([O-])CC(O)(CC(=O)[O-])C(=O)[O-].O=C([O-])CC(O)(CC(=O)[O-])C(=O)[O-].[Ca+2].[Ca+2].[Ca+2] [Pfizer calcium citrate tetrahydrate, calcium citrate tetrahydrate]	about 2.0 g/cc	about 10 m^2/g		
O=C([O-])CC(O)(CC(=O)[O-])C(=O)[O-].O=C([O-])CC(O)(CC(=O)[O-])C(=O)[O-].[Ca+2].[Ca+2].[Ca+2] [calcium citrate]			1.1-1.2 g/cc	1/10
